What was measured:
human GLP-1R = human GLP-1R (Homo sapiens, UniProt P43220); experiment: RIP1-CRE-Luc luciferase reporter; type: cell-based; settings: HEK-GLP-1R cells transfected with RIP1-CRE-Luc; 4 h exposure
[1] = ref [8],[9]; cited from earlier work
[2] = test system: dipeptidyl peptidase IV (DPP-IV); settings: ref [8],[9]; cited from earlier work

human GLP-1R, sequence (P43220 24-463): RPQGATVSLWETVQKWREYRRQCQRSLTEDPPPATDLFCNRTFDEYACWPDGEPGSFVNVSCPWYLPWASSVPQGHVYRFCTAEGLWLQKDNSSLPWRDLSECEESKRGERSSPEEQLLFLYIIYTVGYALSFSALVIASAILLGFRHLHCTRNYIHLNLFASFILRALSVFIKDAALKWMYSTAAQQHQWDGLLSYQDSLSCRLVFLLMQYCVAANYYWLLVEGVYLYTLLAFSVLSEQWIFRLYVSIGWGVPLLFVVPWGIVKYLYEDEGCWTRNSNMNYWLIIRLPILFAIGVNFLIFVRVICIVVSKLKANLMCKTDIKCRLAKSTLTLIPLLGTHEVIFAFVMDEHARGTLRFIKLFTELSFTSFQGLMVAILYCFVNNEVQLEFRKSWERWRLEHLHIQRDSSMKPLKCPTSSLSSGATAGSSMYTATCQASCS

| Compound | luciferase response (in words) (human GLP-1R) | fraction of secreted GLP-1 surviving intact to the systemic circulation [1] | t1/2, degradation by DPP-IV [2] [min] |
| --- | --- | --- | --- |
| CC[C@H](C)[C@H](NC(=O)[C@H](Cc1ccccc1)NC(=O)[C@H](CCC(=O)O)NC(=O)[C@H](CCCCNC(=O)OC[C@H]1O[C@H](n2cnc3cc(C)c(C)cc32)[C@H](O)[C@@H]1OP(=O)(O)O[C@H](C)CNC(=O)CC[C@@]1(C)/C2=C(\C)C3=N/C(=C\C4=NC(=C(/C)C5=N[C@@](C)([C@H](N2)[C@@H]1CC(N)=O)[C@@](C)(CC(N)=O)[C@@H]5CCC(N)=O)/[C@@](C)(CC(N)=O)[C@@H]4CCC(N)=O)C(C)(C)[C@@H]3CCC(N)=O)NC(=O)[C@H](C)NC(=O)[C@H](C)NC(=O)[C@H](CCC(N)=O)NC(=O)CNC(=O)[C@H](CCC(=O)O)NC(=O)[C@H](CC(C)C)NC(=O)[C@H](Cc1ccc(O)cc1)NC(=O)[C@H](CO)NC(=O)[C@H](CO)NC(=O)[C@@H](NC(=O)[C@H](CC(=O)O)NC(=O)[C@H](CO)NC(=O)[C@@H](NC(=O)[C@H](Cc1ccccc1)NC(=O)[C@@H](NC(=O)CNC(=O)[C@H](CCC(=O)O)NC(=O)[C@H](C)NC(=O)[C@@H](N)Cc1c[nH]cn1)[C@@H](C)O)[C@@H](C)O)C(C)C)C(=O)N[C@@H](C)C(=O)N[C@@H](Cc1c[nH]c2ccccc12)C(=O)N[C@@H](CC(C)C)C(=O)N[C@H](C(=O)N[C@@H](CCCNC(=N)N)C(=O)NCC(=O)N[C@@H](CCCNC(=N)N)C(N)=O)C(C)C [compound 1] | concentration-dependent response |  |  |
| cyanocobalamin [B12] | did not produce any response |  |  |
| glucagon-like peptide-1 (7–36) amide [GLP-1] |  | 10–15% | 1 to 2 |
